Source: patent publication US20230160909A1, “NOVEL ION CONDUCTING CHANNEL FUSION SUBUNITS AND METHODS OF USE THEREOF” (UNIVERSITE DE BORDEAUX, priority 2020, published 2023)

Experiments:
Type in all cases: cell-based
TRPV1 channel = target: T1, TRPV1 channel (Homo sapiens, UniProt Q8NER1); experiment: hTRPV1-nLuc-Calflux-YFP (or mNeonGreen) BRET probe in HEK293T cells; settings: TRPV1-nLuc-Calflux-YFP/mNeonGreen probe
T1 construct: expressed in transfected cells; host or cells: HEK293T

TRPV1 ion channel = target: T2, TRPV1 ion channel (Homo sapiens, UniProt Q8NER1); experiment: mNeonGreen-Calflux-nLuc-hTRPV1 BRET biosensor in HEK293T cells; settings: kinetic measurement, FIG. 8A
T2 construct: expressed in transfected cells; host or cells: HEK293T
T2 sequence (Q8NER1 whole entry): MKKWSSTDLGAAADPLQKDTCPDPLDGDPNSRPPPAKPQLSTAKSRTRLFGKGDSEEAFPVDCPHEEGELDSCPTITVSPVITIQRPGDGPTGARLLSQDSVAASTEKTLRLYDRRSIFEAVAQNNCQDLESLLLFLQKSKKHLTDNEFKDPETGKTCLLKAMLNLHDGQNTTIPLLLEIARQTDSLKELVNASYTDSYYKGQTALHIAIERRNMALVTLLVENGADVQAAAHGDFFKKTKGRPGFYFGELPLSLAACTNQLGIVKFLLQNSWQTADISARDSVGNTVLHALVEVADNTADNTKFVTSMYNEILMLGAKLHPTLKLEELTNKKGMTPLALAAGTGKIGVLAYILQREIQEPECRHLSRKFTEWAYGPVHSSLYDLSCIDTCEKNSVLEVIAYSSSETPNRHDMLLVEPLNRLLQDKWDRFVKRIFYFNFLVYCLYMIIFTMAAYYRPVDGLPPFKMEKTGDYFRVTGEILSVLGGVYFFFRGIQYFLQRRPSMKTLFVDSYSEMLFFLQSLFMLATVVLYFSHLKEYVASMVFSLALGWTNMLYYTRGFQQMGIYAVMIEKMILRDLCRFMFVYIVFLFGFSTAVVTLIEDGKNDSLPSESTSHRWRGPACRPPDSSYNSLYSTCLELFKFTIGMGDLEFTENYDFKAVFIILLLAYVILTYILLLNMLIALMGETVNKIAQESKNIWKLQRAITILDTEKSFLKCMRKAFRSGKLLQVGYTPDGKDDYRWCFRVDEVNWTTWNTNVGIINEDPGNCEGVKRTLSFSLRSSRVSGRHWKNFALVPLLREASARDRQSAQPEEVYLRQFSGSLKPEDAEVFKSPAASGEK

P2X2 = target: T3, P2X2 (Rattus norvegicus, UniProt P49653); experiment: rP2X2-nLuc-Calflux-YFP BRET probe in HEK293T cells; settings: read-out: EC50 of activation of P2X2-NLuc-CalFlux-YFP probe
T3 construct: expressed in transfected cells; host or cells: HEK293T
T3 sequence (P49653 1-472): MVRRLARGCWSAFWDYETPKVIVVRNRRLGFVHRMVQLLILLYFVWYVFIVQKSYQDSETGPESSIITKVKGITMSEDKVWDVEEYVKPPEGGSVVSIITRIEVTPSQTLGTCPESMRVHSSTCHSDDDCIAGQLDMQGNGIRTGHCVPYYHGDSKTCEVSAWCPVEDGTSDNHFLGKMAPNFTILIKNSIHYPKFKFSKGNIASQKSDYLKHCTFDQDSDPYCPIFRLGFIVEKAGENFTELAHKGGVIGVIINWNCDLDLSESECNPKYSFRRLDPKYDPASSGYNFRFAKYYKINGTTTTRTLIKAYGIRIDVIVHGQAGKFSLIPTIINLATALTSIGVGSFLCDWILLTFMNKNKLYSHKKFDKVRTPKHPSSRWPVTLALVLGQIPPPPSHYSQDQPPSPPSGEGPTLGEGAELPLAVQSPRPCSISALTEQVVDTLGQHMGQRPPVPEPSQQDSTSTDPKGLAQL

hP2X2 = target: T4, hP2X2 (Homo sapiens, UniProt Q9UBL9); experiment: hP2X2-NeonGreen-Calflux-nLuc BRET probe in HEK293T cells; settings: read-out: EC50 of activation of hP2X2 probe
T4 construct: expressed in transfected cells; host or cells: HEK293T
T4 sequence (Q9UBL9 1-471): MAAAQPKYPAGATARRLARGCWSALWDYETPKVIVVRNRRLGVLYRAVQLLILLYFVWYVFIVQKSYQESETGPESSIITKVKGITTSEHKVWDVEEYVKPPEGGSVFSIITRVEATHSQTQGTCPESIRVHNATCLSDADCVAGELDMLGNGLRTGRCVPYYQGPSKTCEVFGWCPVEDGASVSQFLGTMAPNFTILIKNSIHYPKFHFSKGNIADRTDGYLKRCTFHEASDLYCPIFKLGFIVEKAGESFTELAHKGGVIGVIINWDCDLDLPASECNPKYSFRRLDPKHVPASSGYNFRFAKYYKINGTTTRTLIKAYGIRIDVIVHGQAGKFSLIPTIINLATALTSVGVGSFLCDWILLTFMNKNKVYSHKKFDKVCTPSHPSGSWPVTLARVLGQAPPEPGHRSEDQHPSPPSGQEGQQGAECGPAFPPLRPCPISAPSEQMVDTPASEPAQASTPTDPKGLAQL
Source text: (§1) Values were normalized to the maximal efficacy measured individually for each probe and represent the mean of three independent experiments.
(§2) We constructed human and murine P2X-NeonGreen-Calflux-nLuc probes wherein the DNA sequence encoding the seven human or mouse P2X subunits are individually fused in C-terminal to the calflux calcium sensor sandwiched in between the nanoluciferase and mNeonGreen (FIG. 11 left panel).

hP2X4 = target: T5, hP2X4 (Homo sapiens, UniProt Q99571); experiment: hP2X4-NeonGreen-Calflux-nLuc BRET probe in HEK293T cells; settings: read-out: EC50 of activation of hP2X4 probe
T5 construct: expressed in transfected cells; host or cells: HEK293T
T5 sequence (Q99571 1-388): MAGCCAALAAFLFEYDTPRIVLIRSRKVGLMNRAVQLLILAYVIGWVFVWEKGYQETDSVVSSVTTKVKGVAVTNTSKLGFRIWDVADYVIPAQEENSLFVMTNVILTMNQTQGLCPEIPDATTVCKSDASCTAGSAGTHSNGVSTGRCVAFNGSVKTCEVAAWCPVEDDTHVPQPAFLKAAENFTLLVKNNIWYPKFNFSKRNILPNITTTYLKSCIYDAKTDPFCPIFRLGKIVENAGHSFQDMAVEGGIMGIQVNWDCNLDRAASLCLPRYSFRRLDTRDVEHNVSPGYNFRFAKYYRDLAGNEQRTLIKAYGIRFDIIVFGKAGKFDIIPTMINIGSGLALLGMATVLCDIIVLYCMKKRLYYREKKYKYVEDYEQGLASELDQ
Source text: as §1, §2

hP2X5 = target: T6, hP2X5 (Homo sapiens, UniProt Q93086); experiment: hP2X5-NeonGreen-Calflux-nLuc BRET probe in HEK293T cells; settings: read-out: EC50 of activation of hP2X5 probe
T6 construct: expressed in transfected cells; host or cells: HEK293T
T6 sequence (Q93086 whole entry): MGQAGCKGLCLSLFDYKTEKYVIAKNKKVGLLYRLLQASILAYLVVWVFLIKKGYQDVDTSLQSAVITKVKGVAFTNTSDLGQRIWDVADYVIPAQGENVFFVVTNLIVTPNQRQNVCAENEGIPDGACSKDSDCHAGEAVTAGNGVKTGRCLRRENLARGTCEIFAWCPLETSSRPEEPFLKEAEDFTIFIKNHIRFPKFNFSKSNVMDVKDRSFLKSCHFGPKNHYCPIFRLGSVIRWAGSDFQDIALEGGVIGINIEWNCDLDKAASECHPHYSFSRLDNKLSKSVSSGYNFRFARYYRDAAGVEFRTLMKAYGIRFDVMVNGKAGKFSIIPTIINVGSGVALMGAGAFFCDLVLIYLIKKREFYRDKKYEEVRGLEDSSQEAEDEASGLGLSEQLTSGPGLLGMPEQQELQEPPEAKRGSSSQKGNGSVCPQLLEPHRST
Source text: as §1, §2

mP2X4 = target: T7, mP2X4 (Mus musculus, UniProt Q9JJX6); experiment: mP2X4-NeonGreen-Calflux-nLuc BRET probe in HEK293T cells; settings: FIG. 11
T7 construct: expressed in transfected cells; host or cells: HEK293T
T7 sequence (Q9JJX6 1-388): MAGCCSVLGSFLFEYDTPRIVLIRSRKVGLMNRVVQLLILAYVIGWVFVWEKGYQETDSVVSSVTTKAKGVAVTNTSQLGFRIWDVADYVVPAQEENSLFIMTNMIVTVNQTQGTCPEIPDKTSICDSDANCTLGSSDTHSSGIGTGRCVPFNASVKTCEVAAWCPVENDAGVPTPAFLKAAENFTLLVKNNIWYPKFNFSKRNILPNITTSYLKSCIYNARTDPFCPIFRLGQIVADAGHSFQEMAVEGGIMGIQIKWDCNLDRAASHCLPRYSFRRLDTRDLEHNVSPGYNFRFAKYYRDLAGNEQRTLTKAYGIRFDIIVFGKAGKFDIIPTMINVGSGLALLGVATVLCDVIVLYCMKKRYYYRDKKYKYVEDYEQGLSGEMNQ
Source text: as §1, §2

GABARho1 (GABA receptor) = target: T8, GABARho1 (GABA receptor) (Homo sapiens, UniProt P24046); experiment: YPetCI BRET sensor inserted in GABARho1 subunit; settings: with or without untagged GABARho1 subunit, FIG. 13G
T8 construct: expressed in transfected cells; host or cells: HEK cells are stated only for the free probe
T8 sequence (P24046 22-479): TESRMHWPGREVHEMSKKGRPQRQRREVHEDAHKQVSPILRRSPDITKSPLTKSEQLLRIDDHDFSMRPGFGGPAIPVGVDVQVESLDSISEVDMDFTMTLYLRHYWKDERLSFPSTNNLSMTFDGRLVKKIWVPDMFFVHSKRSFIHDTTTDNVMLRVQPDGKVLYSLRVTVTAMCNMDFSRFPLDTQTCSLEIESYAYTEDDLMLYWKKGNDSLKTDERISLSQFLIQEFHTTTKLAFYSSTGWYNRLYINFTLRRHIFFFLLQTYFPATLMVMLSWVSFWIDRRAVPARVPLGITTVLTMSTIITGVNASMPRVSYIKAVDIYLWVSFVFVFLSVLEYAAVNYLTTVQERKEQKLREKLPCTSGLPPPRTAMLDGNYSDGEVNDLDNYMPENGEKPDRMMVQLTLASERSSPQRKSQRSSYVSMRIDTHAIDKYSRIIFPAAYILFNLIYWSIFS
Source text: FIG. 13: Biosensors allowing to track Cys-loop receptor family activity. Insertion of NG-CF-NL or NL-CF-YFP probes in the second intracellular loop of cationic receptors (A) allows to track activity of nicotinic (B) or serotonin receptors (C). A BRET probe called YPetCI was also developed to sense intracellular anionic flux (D and F). When inserted in the second intracellular loop of GABARho1 subunit this probe allows to track activity of the GABA receptor (G).
We also developed a BRET probe allowing to sense anionic flux by fusing the cDNA of a chloride sensitive variant of YFP (YFP Chlore or YPetCI) to the cDNA of nLuc (FIG. 13D). When expressed in HEK cells this probe is able to detect the anionic influx generated by VRAC channel opening following a hypotonic challenge (FIG. 13F). Based on this probe, we generated a biosensor allowing to measure the activity of the anionic GABA receptors. We inserted the cDNA of the YPetCI sensor in the second intracellular loop of the GABARho1 subunit (FIG. 13E).

hP2X7 = target: T9, hP2X7 (Homo sapiens, UniProt Q99572); experiment: hP2X7-NeonGreen-Calflux-nLuc BRET probe in HEK293T cells; settings: read-out: EC50 of activation of hP2X7 probe
T9 construct: expressed in transfected cells; host or cells: HEK293T
T9 sequence (Q99572 1-595): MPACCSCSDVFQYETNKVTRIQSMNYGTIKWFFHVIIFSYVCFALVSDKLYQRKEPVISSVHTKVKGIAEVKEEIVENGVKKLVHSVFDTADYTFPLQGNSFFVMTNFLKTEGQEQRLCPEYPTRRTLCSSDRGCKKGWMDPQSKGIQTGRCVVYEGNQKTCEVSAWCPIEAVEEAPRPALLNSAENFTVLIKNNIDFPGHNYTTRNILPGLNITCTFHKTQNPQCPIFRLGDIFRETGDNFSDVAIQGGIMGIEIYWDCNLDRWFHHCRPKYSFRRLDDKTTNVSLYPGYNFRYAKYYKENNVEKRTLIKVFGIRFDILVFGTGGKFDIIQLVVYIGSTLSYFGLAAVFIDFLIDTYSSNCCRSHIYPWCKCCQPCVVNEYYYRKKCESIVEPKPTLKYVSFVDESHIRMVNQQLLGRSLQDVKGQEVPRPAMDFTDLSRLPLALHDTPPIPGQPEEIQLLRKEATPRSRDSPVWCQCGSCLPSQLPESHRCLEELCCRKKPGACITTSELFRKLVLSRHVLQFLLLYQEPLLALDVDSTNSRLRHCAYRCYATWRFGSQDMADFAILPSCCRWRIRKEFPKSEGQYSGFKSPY
Source text: as §1, §2

T1 sequence (Q8NER1 whole entry): as the sequence (Q8NER1 whole entry) above

## Nc1ncnc2c1ncn2[C@@H]1O[C@H](COP(=O)(O)OP(=O)(O)OP(=O)(O)O)[C@@H](O)[C@H]1O [ATP]
TRPV1 channel
  change of BRET signal on stimulation: does not respond
TRPV1 ion channel
  change of basal BRET after exposure: only faintly and transiently increased
P2X2
  EC50: 888 ± 274 nM
hP2X2
  EC50: 1630 nM
hP2X4
  EC50: 490 nM
hP2X5
  EC50: 480 nM
mP2X4
  modulation of basal BRET signal: modulated in a dose-dependent manner

## NCCCC(=O)O [GABA, γ-aminobutyric acid]
GABARho1 (GABA receptor)
  modulation of BRET signal: modulated

## BzATP
hP2X7
  EC50: 49000 nM
